In publication PMC5923478 (Viruses, 2018):
Like-named read-outs stand apart in the source and are kept apart here.

Assays:
HCV = tested on: HCV; parameters: method as in ref 11 = [11]; details: Huh 7.5.1 cells, 15 µM, 24 h to 48 h; cited from earlier work
in vitro [1] = details: pig
[2] = tested on: ZIKV surface E antigen expression; type: cell-based, Zika virus
[3] = tested on: Crimean-Congo hemorrhagic fever virus; details: cited from earlier work
TBEV [4] = experiment: microbe, parasite or virus in culture; details: Tick-borne encephalitis virus, Vero, 48 h
in vitro [5] = experiment: in vitro
ZIKV [6] = experiment: microbe, parasite or virus in culture; details: Zika virus, Vero, 48 h
ZIKV [7] = tested on: ZIKV
in vitro [8] = details: African green monkey
Chikungunya virus = details: Vero cells or primary human fibroblasts; cited from earlier work
WNV [9] = tested on: WNV
TBEV [10] = tested on: TBEV
WNV [11] = experiment: microbe, parasite or virus in culture; details: West Nile virus, Vero, 48 h
ZIKV, WNV and TBEV = experiment: organism not typed; type: cell-based
[12] = tested on: WNV viral surface E antigen expression; type: cell-based, West Nile virus
Vero cells = details: African green monkey; human
ZIKV [13] = tested on: ZIKV; parameters: method as in ref 24 = [24]; details: depending on the cultivated cells used; cited from earlier work

CCOC(=O)c1c(CSc2ccccc2)n(C)c2cc(Br)c(O)c(CN(C)C)c12.Cl.O [arbidol, ethyl-6-bromo-4-[(dimethylamino)methyl]-5-hydroxy-1-methyl-2-[(phenylthio)methyl]-indole-3-carboxylate hydrochloride monohydrate]
inhibition of HCV replication (HCV): up to 10^3 fold
CC50 (in vitro [1]): 46.8 ± 1.65 µM
ZIKV surface E antigen expression (immunofluorescence staining) [2]: dose-dependent inhibition
EC50 [3]: 2.8 µg/mL
EC50 (TBEV [4]): 18.67 ± 0.15 µM
CC50 (in vitro [5]): 18.7 to 89.7 µM
CC50 (in vitro [5]; pig (PS), human (UKF-NB-4, HBCA)): 24.8 to 47 µM
EC50 (ZIKV [6]): 12.1 ± 0.77 µM
EC50 (ZIKV [7]): 10.6 ± 0.74 µM
ZIKV replication (ZIKV [7]): not inhibited
ZIKV viral replication (ZIKV [7]): inhibited completely
reduction in ZIKV titer compared to mock-treated cells (ZIKV [7]): about 10^4 fold
CC50 (in vitro [8]): 89.72 ± 0.19 µM
EC50 (Chikungunya virus): < 10 µg/mL
EC50 (WNV [9]): 19.2 ± 0.29 µM
antiviral effects against WNV (WNV [9]): little or no antiviral effects
SI (CC50/EC50) (TBEV [10]): 4.81
TBEV viral titer reduction compared with non-treated cells (TBEV [10]): 10^3 fold
inhibition of TBEV replication (TBEV [10]): incomplete
EC50 (WNV [11]): 18.8 ± 0.21 µM
antiviral effects in virus infected cells (ZIKV, WNV and TBEV): no antiviral effects
viral titer in growth curves (ZIKV, WNV and TBEV): rapid reduction of viral titer
EC50 (ZIKV, WNV and TBEV; Vero, read-out: EC50 values, range over ZIKV, WNV and TBEV): 10.6 to 19.2 µM
WNV viral surface E antigen expression [12]: dose-dependent inhibition
cytotoxicity in Vero cells lower than in Huh-7 cells (Vero cells): about 5 times

CC(C)OC(=O)[C@H](C)N[P@](=O)(OC[C@H]1O[C@@H](n2ccc(=O)[nH]c2=O)[C@](C)(F)[C@@H]1O)Oc1ccccc1 [sofosbuvir]
activity against ZIKV infection (ZIKV [13]): differentially active
